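Dose response: 5 concentrations. Exposure: 48 h. Format: 96-well plates. Endpoint: linear interpolation; highest concentration if not reached. At the TGI there is no net growth.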
Columns and labels:
Experiment in all cases: growth of human tumour cells (NCI), 48 h
OVCAR-4 ovarian = test system: OVCAR-4 ovarian
KM12 colon = test system: KM12 colon
A498 renal = test system: A498 renal
MDA-MB-231 breast = test system: MDA-MB-231 breast
ACHN renal = test system: ACHN renal
SNB-75 CNS = test system: SNB-75 CNS
HCC-2998 colon = test system: HCC-2998 colon
RPMI-8226 leukemia = test system: RPMI-8226 leukemia
HT29 colon = test system: HT29 colon
SW-620 colon = test system: SW-620 colon

| Compound | TGI (OVCAR-4 ovarian) | TGI (KM12 colon) | TGI (A498 renal) | TGI (MDA-MB-231 breast) | TGI (ACHN renal) | TGI (SNB-75 CNS) | TGI (HCC-2998 colon) | TGI (RPMI-8226 leukemia) | TGI (HT29 colon) | TGI (SW-620 colon) |
| --- | --- | --- | --- | --- | --- | --- | --- | --- | --- | --- |
| CCN1CCC(O)(C(C(=O)O)c2ccccc2)CC1 (stereo not given) | > 100 µM | > 100 µM | > 100 µM | > 100 µM | > 100 µM | > 100 µM | > 100 µM | > 100 µM | > 100 µM | > 100 µM |
| Nc1c(C(=O)c2ccc(Cl)cc2)[nH]c(NCc2ccccc2)c1C(=S)Nc1ccccc1 | 4.15 µM | 3.24 µM | 23 µM | 3.91 µM | 4.71 µM | 3.33 µM | 1.98 µM | 4.34 µM | 3.7 µM | 3.63 µM |
| CCCCc1ccc(Nc2nc3c(ncn3COCCO)c(=O)[nH]2)cc1 | > 100 µM | > 100 µM | > 100 µM | > 100 µM | > 100 µM | > 100 µM | > 100 µM | > 100 µM | > 100 µM | > 100 µM |
| C=C1CC(C)(c2ccc(Nc3nc4ccccc4c4occc34)cc2)OC1=O (stereo not given) | 7.73 µM | 34 µM | 33.8 µM | 6.35 µM | 17.8 µM | 6.56 µM | 5.63 µM | 4.47 µM | 12.6 µM |  |
| CC1(C)OCC2OC3([C@H]4OC(C)(C)O[C@@H]4CO)OC(C)(C)OC3C2O1 (stereo not given in full) | > 100 µM | > 100 µM | > 100 µM | > 100 µM | > 100 µM | > 100 µM | > 100 µM | > 100 µM | > 100 µM | > 100 µM |
| COc1cc2c(/C=C3/C(=O)Nc4ccccc43)c(Cl)[nH]c2cc1C | 21.1 µM | 0.232 µM | 19.8 µM | 4.89 µM | 17.4 µM | 17.9 µM | 0.982 µM | 24.9 µM | 1.05 µM | 59 µM |
| Cc1cn([C@@H]2C[C@H]2CO)c(=O)[nH]c1=O | > 100 µM | > 100 µM | > 100 µM | > 100 µM | > 100 µM | > 100 µM | > 100 µM | > 100 µM | > 100 µM | > 100 µM |
| CC1(CNCc2ccccc2)CC(CCc2ccccc2)N(C(=O)c2ccc([N+](=O)[O-])cc2)C1Cc1ccc(O)cc1 (stereo not given) | 28.2 µM | 36.2 µM | 26.7 µM | 24.4 µM | 24.8 µM |  | 27.1 µM | > 100 µM | 22 µM | 86 µM |
| COc1cc(CN2CCCCC2)cc2cc(C(=O)O)c(=O)oc12 | > 100 µM | > 100 µM | > 100 µM | > 100 µM | > 100 µM | > 100 µM | > 100 µM | > 100 µM | > 100 µM | > 100 µM |
| COc1cc(/C=C\C(=O)O)ccc1OCc1ccccc1 |  | > 100 µM | > 100 µM | > 100 µM | > 100 µM |  | > 100 µM | > 100 µM |  | > 100 µM |
| O=C1C=C(c2ccccc2)O/C1=C/C(=O)c1ccc(Cl)cc1 | 32.9 µM | 36.7 µM | 75.4 µM | 31.2 µM | 30.5 µM | 23.6 µM | 32.2 µM | 25.9 µM | 36.5 µM | 27.1 µM |
| O=C(Cc1ccccc1)NN1C(=O)/C(=C\c2ccc([N+](=O)[O-])cc2)SC1=Nc1ccccc1 | > 100 µM | > 100 µM | > 100 µM | > 100 µM | > 100 µM | > 100 µM | > 100 µM | > 100 µM | > 100 µM | > 100 µM |
| Cc1c2ncccc2cc2oc3ccccc3c(=O)c12 | > 100 µM | > 100 µM | > 100 µM | > 100 µM | > 100 µM | > 100 µM | > 100 µM | > 100 µM | > 100 µM | > 100 µM |
| CC1(C)C=C(S(=O)(=O)c2ccccc2)Oc2ccccc2O1 | > 100 µM | > 100 µM | > 100 µM | > 100 µM | > 100 µM | 82.3 µM | 68.5 µM | > 100 µM | > 100 µM | > 100 µM |
| NC(N)=NS(=O)(=O)c1ccc(NC(=O)c2ccc3nc4ccccc4c(Nc4ccc(S(=O)(=O)N=C(N)N)cc4)c3c2)cc1 | > 100 µM | > 100 µM | > 100 µM | > 100 µM | > 100 µM | > 100 µM | > 100 µM | > 100 µM | > 100 µM | > 100 µM |
| c1ccc(/C(=N/Nc2ccccn2)c2ncccn2)cc1 | > 100 µM | > 53.8 µM | > 100 µM | > 100 µM | 13.3 µM | 16.2 µM | > 100 µM | > 62.9 µM | > 47.4 µM | > 20.2 µM |

Source: PubChem BioAssay (NCI)
